According to patent publication EP4733761A1, “METHOD FOR SCREENING FOR PROTEINS ASSOCIATED WITH NEURODEGENERATIVE DISEASES AND THERAPEUTIC OR PROPHYLACTIC DRUGS FOR NEURODEGENERATIVE DISEASES” (priority 2023, dated 2026):
Values belong to the compound of their own block, whether it stands above or below them. Peptide text beside a SMILES is read from it. * marks the point of attachment. Dansyl = CN(C)c1cccc2c(S(=O)(=O)*)cccc12

Assays:
Dnc-PR20/Kapβ2 = test: Screening for DPRs-Kapβ2 binding inhibitors with additives (probe fluorescence attenuation); design: species or system human; settings: Dnc-PR20 300 nM, Kapβ2 400 nM
Protocol: A buffer solution (20 mM Tris-HCl (pH 7.5), 150 mM NaCl, and 2 mM DTT (final concentration)) was used to prepare a mixture of Dnc-PR20 (final concentration 300 nM) and Kapβ2 (final concentration 400 nM), and an automatic dispensing system (Andrew+, Andrew Alliance) was used to add 20 µL/well of each to a 384-well microplate (Corning, 3820). After incubation at 35°C for 10 min, the fluorescence intensity (fluorescence wavelength: 520 nm) and fluorescence spectrum (fluorescence wavelength: 400-700 nm) were measured at an excitation wavelength of 340 nm using a microplate reader (Cytation 5, BioTek). Then, 5 µL/well of various concentrations of additives (poly K50 or IgG/pure water) were added using an automated pipetting system, and after incubation at 35°C for 10 minutes, the fluorescence intensity and fluorescence spectrum were measured under the same conditions. As a control, the Dnc-PR20 solution without Kapβ2 was measured for fluorescence intensity and fluorescence spectrum in the same manner.
In addition to poly K50 and IgG, the 520 nm fluorescence intensity of Dnc-PR20 was measured with PAMAM, GST-M9M, RanGTP, ATP, and HSA as additives, using the same procedure as in Section 6 above.

Kapβ2 = test: Kapβ2-induced fluorescence change of dansyl-DPR probes; assay type: binding, human; settings: for fluorescence intensity / spectrum change on addition of Kapβ2: various Kapβ2 concentrations
Protocol: (§1) A buffer solution (20 mM Tris-HCl (pH 7.5), 150 mM NaCl, and 2 mM DTT (final concentration)) was used to prepare the probe solutions (final concentration 300 nM) for probes 1 to 7 above. Each probe solution was added to a 384-well microplate (Corning, 3575) at 30 µL/well using an automated pipetting system (Andrew+, Andrew Alliance). After incubation at 35°C for 10 min, fluorescence intensity (fluorescence wavelength: 520 nm) and fluorescence spectrum (fluorescence wavelength: 400-700 nm) at an excitation wavelength of 340 nm were measured using a microplate reader (Cytation 5, BioTek). Then, various concentrations of Kapβ2 solution (Kapβ2/pure water) were added to the 384-well microplate at 30 µL/well using an automated pipetting system. After incubation at 35°C for 10 minutes, fluorescence intensity and fluorescence spectrum were measured under the same conditions as above.

β-lactoglobulin = test: Fluorescence change of probes by various proteins: β-lactoglobulin; assay type: binding, bovine; settings: for fluorescence spectrum / 540 nm fluorescence intensity change on addition of β-lactoglobulin: 1600 nM protein solution, probe 300 nM
Protocol: as §1
(§2) The fluorescence intensity and fluorescence spectra of Dnc-PR20 (probe 1) and Dnc-GP20 (probe 2) were measured using the same procedure as described in Section 2 above, except that aqueous solutions (1600 nM) of bovine milk-derived β-lactoglobulin, human serum-derived α1-antitrypsin, human serum-derived albumin (HSA), human serum-derived apotransferrin, chicken egg white-derived lysozyme, or human serum-derived immunoglobulin G (IgG) were used in place of the Kapβ2 solution.

MBP-FUS = test: FUS-induced fluorescence change of dansyl-DPR probes; assay type: binding, human; settings: for fluorescence intensity / spectrum change on addition of MBP-FUS: various MBP-FUS concentrations
Protocol: as §1
The same procedure as in Section 2 above was used, except that MBP-tagged FUS (MBP-FUS) solution (MBP-FUS/pure water) was used in place of the Kapβ2 solution, to measure the fluorescence intensity and fluorescence spectra of Dnc-PR20 (probe 1) and Dnc-GP20 (probe 2).

[1] = system: α1-antitrypsin, albumin (HSA), apotransferrin, lysozyme, immunoglobulin G (IgG); test: Fluorescence change of probes by various proteins: other control proteins; assay type: binding, human; chicken; settings: 1600 nM protein solutions; probe 300 nM
Protocol: as §1, §2

Imb-2 = test: Fluorescence change of probes by LLPS-related proteins: Imb-2; assay type: binding, C. elegans; settings: Imb-2 solution 800 nM (Figure 8)
Protocol: as §1
(§3) In addition to the proteins tested in Sections 2 to 4 above, aqueous solutions of proteins that may be relevant to the formation or control of liquid-liquid phase separation (LLPS) were used to measure the 520 nm fluorescence intensity of Dnc-PR20 (probe 1) and Dnc-GP20 (probe 2). The following proteins were used as proteins that may be associated with the formation or regulation of LLPS were Imb-2, hnRNPA2LC, PPIA, Impα, Impβ, GST-M9M, and RanGTP. […]

Impα = test: Fluorescence change of probes by LLPS-related proteins: Impα; assay type: binding, human; settings: Impα solution 1600 nM (Figure 8)
Protocol: as §1, §3

Impβ = test: Fluorescence change of probes by LLPS-related proteins: Impβ; assay type: binding, human; settings: Impβ solution 1600 nM (Figure 8)
Protocol: as §1, §3

[2] = probe 300 nM, excitation 340 nm

additive concentration resulting in a fluorescence intensity comparable to that of the control (Dnc-PR20/Kapβ2; control = Dnc-PR20 solution without Kapβ2): 200 nM
520 nm fluorescence intensity change of Dnc-PR20 in Dnc-PR20/Kapβ2 mixture (Dnc-PR20/Kapβ2; various additives (Figure 10)): attenuated
Compound: 50-mer polylysine [poly K50]
fluorescence intensity change of Dnc-PR20 in Dnc-PR20/Kapβ2 solution (Dnc-PR20/Kapβ2; additive 0-300 nM): decreased in a poly K50 concentration-dependent manner

Compound: CN(C)c1cccc2c(S(=O)(=O)NCC(=O)N3CCC[C@H]3C(=O)NCC(=O)N3CCC[C@H]3C(=O)NCC(=O)N3CCC[C@H]3C(=O)NCC(=O)N3CCC[C@H]3C(=O)NCC(=O)N3CCC[C@H]3C(=O)NCC(=O)N3CCC[C@H]3C(=O)NCC(=O)N3CCC[C@H]3C(=O)NCC(=O)N3CCC[C@H]3C(=O)NCC(=O)N3CCC[C@H]3C(=O)NCC(=O)N3CCC[C@H]3C(=O)O)cccc12 [Dnc-GP10, Dansyl-NH-(Gly-Pro)10-COOH] (Dansyl-GPGPGPGPGPGPGPGPGPGP-OH)
fluorescence intensity / spectrum change on addition of Kapβ2 (Kapβ2; [2]): unchanged

Compound: CN(C)c1cccc2c(S(=O)(=O)NCC(=O)N3CCC[C@H]3C(=O)NCC(=O)N3CCC[C@H]3C(=O)NCC(=O)N3CCC[C@H]3C(=O)NCC(=O)N3CCC[C@H]3C(=O)NCC(=O)N3CCC[C@H]3C(=O)NCC(=O)N3CCC[C@H]3C(=O)NCC(=O)N3CCC[C@H]3C(=O)NCC(=O)N3CCC[C@H]3C(=O)NCC(=O)N3CCC[C@H]3C(=O)NCC(=O)N3CCC[C@H]3C(=O)NCC(=O)N3CCC[C@H]3C(=O)NCC(=O)N3CCC[C@H]3C(=O)NCC(=O)N3CCC[C@H]3C(=O)NCC(=O)N3CCC[C@H]3C(=O)NCC(=O)N3CCC[C@H]3C(=O)NCC(=O)N3CCC[C@H]3C(=O)NCC(=O)N3CCC[C@H]3C(=O)NCC(=O)N3CCC[C@H]3C(=O)NCC(=O)N3CCC[C@H]3C(=O)NCC(=O)N3CCC[C@H]3C(=O)O)cccc12 [Dnc-GP20, Dansyl-NH-(Gly-Pro)20-COOH] (Dansyl-GPGPGPGPGPGPGPGPGPGPGPGPGPGPGPGPGPGPGPGP-OH)
fluorescence spectrum / 540 nm fluorescence intensity change on addition of β-lactoglobulin (β-lactoglobulin): did not exhibit substantial changes
fluorescence intensity / spectrum change on addition of Kapβ2 (Kapβ2; [2]): little changed
fluorescence intensity / spectrum change on addition of MBP-FUS (MBP-FUS; [2]): hardly changed
fluorescence spectrum change on addition of the other proteins [1]: did not exhibit substantial changes

Compound: CN(C)c1cccc2c(S(=O)(=O)NCC(=O)N[C@@H](CCCNC(=N)N)C(=O)NCC(=O)N[C@@H](CCCNC(=N)N)C(=O)NCC(=O)N[C@@H](CCCNC(=N)N)C(=O)NCC(=O)N[C@@H](CCCNC(=N)N)C(=O)NCC(=O)N[C@@H](CCCNC(=N)N)C(=O)NCC(=O)N[C@@H](CCCNC(=N)N)C(=O)NCC(=O)N[C@@H](CCCNC(=N)N)C(=O)NCC(=O)N[C@@H](CCCNC(=N)N)C(=O)NCC(=O)N[C@@H](CCCNC(=N)N)C(=O)NCC(=O)N[C@@H](CCCNC(=N)N)C(=O)O)cccc12 [Dnc-GR10, Dansyl-NH-(Gly-Arg)10-COOH] (Dansyl-GRGRGRGRGRGRGRGRGRGR-OH)
fluorescence intensity / spectrum change on addition of Kapβ2 (Kapβ2; [2]): increased in a Kapβ2 concentration-dependent manner

Compound: C[C@H](NC(=O)[C@@H]1CCCN1C(=O)[C@H](C)NC(=O)[C@@H]1CCCN1C(=O)[C@H](C)NC(=O)[C@@H]1CCCN1C(=O)[C@H](C)NC(=O)[C@@H]1CCCN1C(=O)[C@H](C)NC(=O)[C@@H]1CCCN1C(=O)[C@H](C)NC(=O)[C@@H]1CCCN1C(=O)[C@H](C)NC(=O)[C@@H]1CCCN1C(=O)[C@H](C)NC(=O)[C@@H]1CCCN1C(=O)[C@H](C)NC(=O)[C@@H]1CCCN1C(=O)[C@H](C)NC(=O)[C@@H]1CCCN1S(=O)(=O)c1cccc2c(N(C)C)cccc12)C(=O)O [Dnc-PA10, Dansyl-NH-(Pro-Ala)10-COOH] (Dansyl-PAPAPAPAPAPAPAPAPAPA-OH)
fluorescence intensity / spectrum change on addition of Kapβ2 (Kapβ2; [2]): unchanged

Compound: CN(C)c1cccc2c(S(=O)(=O)N3CCC[C@H]3C(=O)N[C@@H](CCCNC(=N)N)C(=O)N3CCC[C@H]3C(=O)N[C@@H](CCCNC(=N)N)C(=O)N3CCC[C@H]3C(=O)N[C@@H](CCCNC(=N)N)C(=O)N3CCC[C@H]3C(=O)N[C@@H](CCCNC(=N)N)C(=O)N3CCC[C@H]3C(=O)N[C@@H](CCCNC(=N)N)C(=O)N3CCC[C@H]3C(=O)N[C@@H](CCCNC(=N)N)C(=O)N3CCC[C@H]3C(=O)N[C@@H](CCCNC(=N)N)C(=O)N3CCC[C@H]3C(=O)N[C@@H](CCCNC(=N)N)C(=O)N3CCC[C@H]3C(=O)N[C@@H](CCCNC(=N)N)C(=O)N3CCC[C@H]3C(=O)N[C@@H](CCCNC(=N)N)C(=O)O)cccc12 [Dnc-PR10, Dansyl-NH-(Pro-Arg)10-COOH] (Dansyl-PRPRPRPRPRPRPRPRPRPR-OH)
fluorescence intensity / spectrum change on addition of Kapβ2 (Kapβ2; [2]): increased in a Kapβ2 concentration-dependent manner

Compound: CN(C)c1cccc2c(S(=O)(=O)N3CCC[C@H]3C(=O)N[C@@H](CCCNC(=N)N)C(=O)N3CCC[C@H]3C(=O)N[C@@H](CCCNC(=N)N)C(=O)N3CCC[C@H]3C(=O)N[C@@H](CCCNC(=N)N)C(=O)N3CCC[C@H]3C(=O)N[C@@H](CCCNC(=N)N)C(=O)N3CCC[C@H]3C(=O)N[C@@H](CCCNC(=N)N)C(=O)N3CCC[C@H]3C(=O)N[C@@H](CCCNC(=N)N)C(=O)N3CCC[C@H]3C(=O)N[C@@H](CCCNC(=N)N)C(=O)N3CCC[C@H]3C(=O)N[C@@H](CCCNC(=N)N)C(=O)N3CCC[C@H]3C(=O)N[C@@H](CCCNC(=N)N)C(=O)N3CCC[C@H]3C(=O)N[C@@H](CCCNC(=N)N)C(=O)N3CCC[C@H]3C(=O)N[C@@H](CCCNC(=N)N)C(=O)N3CCC[C@H]3C(=O)N[C@@H](CCCNC(=N)N)C(=O)N3CCC[C@H]3C(=O)N[C@@H](CCCNC(=N)N)C(=O)N3CCC[C@H]3C(=O)N[C@@H](CCCNC(=N)N)C(=O)N3CCC[C@H]3C(=O)N[C@@H](CCCNC(=N)N)C(=O)N3CCC[C@H]3C(=O)N[C@@H](CCCNC(=N)N)C(=O)N3CCC[C@H]3C(=O)N[C@@H](CCCNC(=N)N)C(=O)N3CCC[C@H]3C(=O)N[C@@H](CCCNC(=N)N)C(=O)N3CCC[C@H]3C(=O)N[C@@H](CCCNC(=N)N)C(=O)N3CCC[C@H]3C(=O)N[C@@H](CCCNC(=N)N)C(=O)O)cccc12 [Dnc-PR20, Dansyl-NH-(Pro-Arg)20-COOH] (Dansyl-PRPRPRPRPRPRPRPRPRPRPRPRPRPRPRPRPRPRPRPR-OH)
fluorescence spectrum / 540 nm fluorescence intensity change on addition of β-lactoglobulin (β-lactoglobulin): slightly increased
520 nm fluorescence (β-lactoglobulin; β-lactoglobulin solution 1600 nM (Figure 8)): above 1000
520 nm fluorescence (Imb-2): above 1000
520 nm fluorescence (Impα): above 1000
540 nm fluorescence intensity increase compared to the fluorescence intensity at 0 nM Kapβ2 (Kapβ2; 1600 nM Kapβ2, probe 300 nM, excitation 340 nm): approximately 6.1 fold
520 nm fluorescence (Kapβ2; Kapβ2 solution 1600 nM (Figure 8)): above 1000
fluorescence intensity / spectrum change on addition of Kapβ2 (Kapβ2; [2]): increased in a Kapβ2 concentration-dependent manner
520 nm fluorescence (Impβ): above 1000
540 nm fluorescence intensity increase compared to the fluorescence intensity at 0 nM MBP-FUS (MBP-FUS; 1600 nM MBP-FUS, probe 300 nM, excitation 340 nm): approximately 4.6 fold
520 nm fluorescence (MBP-FUS; MBP-FUS solution 1600 nM (Figure 8)): above 1000
fluorescence intensity / spectrum change on addition of MBP-FUS (MBP-FUS; [2]): increased in an MBP-FUS concentration-dependent manner
fluorescence spectrum change on addition of the other proteins [1]: did not exhibit substantial changes

Compound: Dansyl-NH-(Gly-Ala)19-COOH (Dansyl-GAGAGAGAGAGAGAGAGAGA-OH) [Dnc-GA10]
fluorescence intensity / spectrum change on addition of Kapβ2 (Kapβ2; [2]): unchanged
